Measured values as given in US7312248B2, “Control of parasites in animals by the use of novel trifluoromethanesulfonanilide oxime ether derivatives” (Schering-Plough Animal Health Corporation, priority 2004, dated 2007).
Like-named read-outs stand apart in the source and are kept apart here.

Key:
Format in all cases: in vivo
[1] = tested on: Haemonchus contortus; assay: Haemonchus contortus larvacidal (larval development) assay; details: 144 h, read-out: Haemonchus contortus LD99
In short: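 Nematode eggs placed on agar containing compound (12 two-fold dilutions, final 0.024–50 μg/ml) and left 6 days to develop to L3. LD99 is the lowest concentration inhibiting development of 99% of larvae, derived from well titre (2^n−1) and top concentration.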

[2] = tested on: cat flea (Ctenocephalides felis); assay: whole plant or invertebrate; details: Ctenocephalides felis, Laboratory 1 A data
In short: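 Single-dose screen at 1.26 μg/cm^2: acetone solution dried for 24 h on a Coatasil-treated 159 mm^2 flask base, then 15 adult cat fleas aged 3-7 days per flask, four or more replicates, acetone control. Percent dead, meaning not moving or unable to right themselves, recorded after 8, 24 and/or 48 h at 25 °C and 75% RH.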

[3] = tested on: cat flea (Ctenocephalides felis); assay: Ctenocephalides felis adulticide assay: dose response (LC50)
In short: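 Groups of 15 adult cat fleas, 3–7 days post-emergence, were exposed for 24 h at 25° C and 75% humidity to glass flask bases coated with six serial doses in acetone and dried for 24 h. Mortality was scored at 8 and 24 h, and LC50 was the surface-treatment concentration killing 50%.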

[4] = tested on: Brown Dog Tick (Rhipicephalus sanguineus); assay: Rapid screening protocol for topical application on brown dog ticks; details: 48 h; Laboratory 2 F data
[5] = 8 h, read-out: C. felis Mortality (%) 8 h, 8 h
[6] = 24 h, read-out: C. felis Mortality (%) 24 h, 24 h

Row | Compound | IC99 [1] | mortality at 1.26 µg/cm2, 1.26 µg/cm2 [2, 5] | mortality at 1.26 µg/cm2, 1.26 µg/cm2 [2, 6] | C. felis LC50 ([3]; Laboratory 1 C data) | C. felis LC50 ([3]; Laboratory 2 D data) | R. sanguineus Mortality (%) 48 h [4]
1 | CC/C(=N\OCc1ccc(Cl)cc1)c1cc(Cl)ccc1NS(=O)(=O)C(F)(F)F [Compound 11, N-{4-chloro-2-[1-(4-chlorobenzyloxyimino)propyl]phenyl}trifluoromethanesulfonamide] | 0.7 µg/mL | 87% | 100% | 0.1 μg/cm^2 | 0.01 μg/cm^2 | 97%
2 | CC/C(=N\OCc1ccc(C(F)(F)F)cc1)c1cc(Cl)ccc1NS(=O)(=O)C(F)(F)F [Compound 9] | 0.6 µg/mL | 86% | 98% | 0.1 μg/cm^2 | 0.01 μg/cm^2 | 95%
